Results from patent publication EP0977755B1, “HETEROCYCLIC COMPOUNDS AND THEIR PREPARATION AND USE” (NOVO NORDISK A/S, priority 1997, dated 1998).
Counter-ions that a name gives are not always drawn. Like-named read-outs stand apart in the source and are kept apart here.

Molecular target: T1, m1 muscarinic receptor (Rattus norvegicus, UniProt P08482)
T1 construct: expressed in transfected cells; host or cells: A9 L cells (mouse fibroblast line)
T1 sequence (P08482 1-460): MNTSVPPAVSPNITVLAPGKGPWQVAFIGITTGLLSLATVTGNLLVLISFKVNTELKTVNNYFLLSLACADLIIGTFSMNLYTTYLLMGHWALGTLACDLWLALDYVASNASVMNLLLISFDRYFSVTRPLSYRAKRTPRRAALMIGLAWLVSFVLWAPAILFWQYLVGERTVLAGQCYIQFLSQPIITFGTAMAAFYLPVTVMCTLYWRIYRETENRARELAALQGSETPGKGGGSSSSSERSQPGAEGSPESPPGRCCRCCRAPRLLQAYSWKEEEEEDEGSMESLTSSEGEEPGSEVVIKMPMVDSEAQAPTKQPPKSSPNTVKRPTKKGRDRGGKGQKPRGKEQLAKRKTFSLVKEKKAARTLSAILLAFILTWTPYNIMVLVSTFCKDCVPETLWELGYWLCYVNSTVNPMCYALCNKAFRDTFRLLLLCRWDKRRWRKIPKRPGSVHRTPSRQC
Assay: IP hydrolysis in A9 L cells cloned with the genetic m1 muscarinic receptor
Assay type: cell-based, human and rat
Details: for EC50: IP hydrolysis, seven point curves, three separate experiments; for Emax: A9L-m1, 0.75 h, read-out: % PI (efficacy)

[1] = percentage of total [3H]IP accumulated in the presence of 100 µM carbachol stimulation, 37°C for 45 min

Description: IP hydrolysis in A9 L cells cloned with the genetic m, muscarinic receptor: A9 L cells transfected with human and rat m, muscarinic receptors (Dörje et al., 1991; Jones et al., 1988), were cultured to confluence in 75-ml flasks containing Dulbecco's modified essential media. Cells were prelabeled with 1 µCi/ml of myo(2-[^3H]inositol (Amersham Inc., 16.3 Ci/mmol) for 48 hr before assaying. On the day of assay, cells were detached using a 30-sec exposure to 0.25% trypsin in 1 mM EDTA. The cells were collected by centrifugation (300 x g for 5 min) and resuspended in oxygenated HEPES buffer containing 10 mM LiCl (NaCl 142 mM, KCl 5.6 mM, CaCl2 2.2 mM, MgCl2 1 mM, NaHCO3 3.6 mM, D-glucose 5.6 mM and Na^+ HEPES 30 mM, pH 7.4). Cells were incubated at 37°C for 45 min in the presence of varying concentrations of test compounds. Total IP hydrolysis was determined using the method of Schoepp and Johnson (1988). […] Half-maximal (EC50) values were determined from the mean (±S.D.) of seven point curves determined from three separate experiments.

| Compound | EC50 (EC50, nM) | Emax [1] | EC50 (read-out: EC50) | % PI (efficacy) (percentage of total [3H]IP accumulated in the presence of 100 µM carbachol stimulation, 37°C for 45 min, 45 min) |
| --- | --- | --- | --- | --- |
| C(#Cc1ccccc1)COc1nsnc1C1CN2CCC1CC2 (racemic) [Compound 53, (+-)3-(3-(3-Phenyl-2-propyn-1-yloxy)-1,2,5-thiadiazol-4-yl)-1-azabicyclo[2.2.2]octane, oxalate] | 13 nM |  |  |  |
| COc1cccc(C#CCOc2nsnc2[C@H]2CN3CC[C@@H]2C3)c1 (single isomer, unassigned) [Compound 10, Endo (β)-3-(3-(3-(3-Methoxyphenyl)-2-propyn-1-yloxy)-1,2,5-thiadiazol-4-yl)-1-azabicyclo[2.2.1]heptane, (-)-tartrate] |  | 57% | 75 nM |  |
| C(#Cc1cccs1)COc1nsnc1[C@H]1CN2CCC[C@H]1C2 [Compound 49, Exo (5R,6R)-6-(3-[3-(2-Thienyl)-2-propyn-1-yloxy]-1,2,5-thiadiazol-4-yl)-1-azabicyclo[3 2 1]octane, oxalate] |  | 100% | 0.7 nM |  |
| COc1cccc(C#CCOc2nsnc2[C@H]2CN3CC[C@@H]2C3)c1 (single isomer, unassigned) [Compound 5, Endo (α)-3-(3-(3-(3-Methoxyphenyl)-2-propyn-1-yloxy)-1,2,5-thiadiazol-4-yl)-1-azabicyclo[2.2.1]heptane, (+)-tartrate] |  |  | 42 nM | 73% |
| Fc1ccc(C#CCOc2nsnc2[C@H]2CN3CC[C@@H]2C3)cc1 (racemic) [Compound 2, Endo (+-) 3-(3-(3-(4-Fluorophenyl)-2-propyn-1-yloxy)-1,2,5-thiadiazol-4-yl)-1-azabicyclo[2.2.1]heptane,(+)-tartrate] |  | 74% | 1800 nM |  |
| C(#Cc1ccccc1)CSc1nsnc1[C@@H]1CN2CCC[C@H]1C2 [Compound 20, Endo (5R,6S)-6-(3-(3-Phenyl-2-propyn-1-ylthio)-1,2,5-thiadiazol-4-yl)-1-azabicyclo[3,2 1]octane, (+)-tartrate] |  | 98% | 1 nM |  |
